Measured values from PMC9841527 (Journal of Medicinal Chemistry, 2022).

Experiments:
[1] = biological target: DOT1L (Homo sapiens, UniProt Q8TEK3); assay: Selectivity assay, DOT1L; assay type: biochemical; details: compound 10 μM, 3H-SAM 1 μM
[2] = biological target: T1, Dam (Escherichia coli, UniProt P0AEE8); assay type: biochemical
T1 sequence (P0AEE8 1-278): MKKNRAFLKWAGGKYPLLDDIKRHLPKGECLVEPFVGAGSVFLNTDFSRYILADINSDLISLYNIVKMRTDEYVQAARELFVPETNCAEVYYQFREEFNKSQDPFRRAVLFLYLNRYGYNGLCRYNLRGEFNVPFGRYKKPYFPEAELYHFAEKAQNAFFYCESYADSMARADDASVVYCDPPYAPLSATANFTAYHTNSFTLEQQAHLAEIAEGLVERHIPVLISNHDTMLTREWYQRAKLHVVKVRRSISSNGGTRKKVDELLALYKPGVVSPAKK

[3] = biological target: DNMT1 (Homo sapiens, UniProt P26358); assay: Selectivity assay, DNMT1; assay type: biochemical; details: [I] = 10 μM, [SAM] = 5.5 μM, 37 °C
[4] = biological target: MettL3-MettL14 (Homo sapiens, UniProt Q86U44); assay: Selectivity assay, MettL3-MettL14; assay type: biochemical; details: [I] = 10 μM, [SAM] = 20 μM, 5 mM NaCl, or CamA conditions
[5] = biological target: T2, G9a (Homo sapiens, UniProt Q96KQ7); assay: Selectivity assay, G9a; assay type: biochemical; details: compound 10 μM, 3H-SAM 1 μM
T2 sequence (Q96KQ7 1-1210): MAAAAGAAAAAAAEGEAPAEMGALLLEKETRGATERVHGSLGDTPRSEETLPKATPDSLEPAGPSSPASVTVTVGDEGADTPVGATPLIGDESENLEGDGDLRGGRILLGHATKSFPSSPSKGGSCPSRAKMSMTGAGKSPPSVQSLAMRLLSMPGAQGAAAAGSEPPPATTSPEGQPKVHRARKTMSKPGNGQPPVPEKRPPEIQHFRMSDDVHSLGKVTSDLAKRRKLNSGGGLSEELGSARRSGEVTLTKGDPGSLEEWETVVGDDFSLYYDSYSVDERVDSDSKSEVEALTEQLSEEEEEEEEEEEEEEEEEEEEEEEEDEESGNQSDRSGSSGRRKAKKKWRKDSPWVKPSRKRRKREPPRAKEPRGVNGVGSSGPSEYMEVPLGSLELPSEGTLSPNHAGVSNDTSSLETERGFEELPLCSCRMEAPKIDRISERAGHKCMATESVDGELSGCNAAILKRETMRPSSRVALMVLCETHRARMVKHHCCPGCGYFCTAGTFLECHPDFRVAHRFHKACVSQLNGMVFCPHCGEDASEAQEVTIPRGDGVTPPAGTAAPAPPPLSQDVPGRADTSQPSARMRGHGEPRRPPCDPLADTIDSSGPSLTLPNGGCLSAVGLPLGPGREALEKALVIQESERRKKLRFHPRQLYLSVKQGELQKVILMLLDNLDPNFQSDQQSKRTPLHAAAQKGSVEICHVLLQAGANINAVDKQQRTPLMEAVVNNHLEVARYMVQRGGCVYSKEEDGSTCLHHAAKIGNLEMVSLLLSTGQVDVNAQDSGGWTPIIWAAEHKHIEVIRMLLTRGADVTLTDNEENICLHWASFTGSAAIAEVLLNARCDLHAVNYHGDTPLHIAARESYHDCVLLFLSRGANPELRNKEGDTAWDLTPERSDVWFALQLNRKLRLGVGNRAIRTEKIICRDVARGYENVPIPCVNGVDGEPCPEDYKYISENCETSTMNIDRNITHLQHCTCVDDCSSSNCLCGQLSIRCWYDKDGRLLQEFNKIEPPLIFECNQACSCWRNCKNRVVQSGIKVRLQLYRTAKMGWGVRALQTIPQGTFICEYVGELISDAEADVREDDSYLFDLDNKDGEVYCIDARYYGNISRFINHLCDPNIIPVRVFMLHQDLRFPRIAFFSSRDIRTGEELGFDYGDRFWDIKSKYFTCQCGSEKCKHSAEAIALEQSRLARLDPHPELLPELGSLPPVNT

[6] = biological target: PRMT1 (Homo sapiens, UniProt Q99873); assay: Selectivity assay, PRMT1; assay type: biochemical; details: compound 10 μM, 3H-SAM 1 μM
[7] = biological target: CcrM (Caulobacter vibrioides, UniProt P0CAW2); assay type: biochemical, Caulobacter crescentus
Chain of CcrM (P0CAW2 whole entry): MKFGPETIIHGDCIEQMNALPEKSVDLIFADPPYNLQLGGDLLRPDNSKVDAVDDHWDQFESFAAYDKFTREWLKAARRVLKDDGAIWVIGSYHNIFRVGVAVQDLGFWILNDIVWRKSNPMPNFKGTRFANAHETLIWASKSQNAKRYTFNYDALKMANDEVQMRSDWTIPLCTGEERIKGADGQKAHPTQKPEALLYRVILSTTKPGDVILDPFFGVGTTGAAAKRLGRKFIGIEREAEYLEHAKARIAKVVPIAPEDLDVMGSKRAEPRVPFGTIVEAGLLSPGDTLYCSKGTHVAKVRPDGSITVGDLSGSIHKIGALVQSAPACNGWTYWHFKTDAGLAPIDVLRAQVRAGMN

Chain of PRMT1 (Q99873 whole entry): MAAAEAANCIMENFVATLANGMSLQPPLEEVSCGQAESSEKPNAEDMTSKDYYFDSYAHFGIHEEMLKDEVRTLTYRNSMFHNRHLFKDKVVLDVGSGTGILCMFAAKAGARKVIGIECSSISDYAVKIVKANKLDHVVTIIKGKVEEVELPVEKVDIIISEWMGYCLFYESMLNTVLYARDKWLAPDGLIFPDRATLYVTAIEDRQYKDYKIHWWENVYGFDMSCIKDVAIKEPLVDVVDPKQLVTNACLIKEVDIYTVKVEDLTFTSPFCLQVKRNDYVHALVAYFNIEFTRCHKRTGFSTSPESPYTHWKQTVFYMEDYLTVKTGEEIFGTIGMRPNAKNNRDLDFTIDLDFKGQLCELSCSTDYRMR
Chain of DOT1L (Q8TEK3 whole entry): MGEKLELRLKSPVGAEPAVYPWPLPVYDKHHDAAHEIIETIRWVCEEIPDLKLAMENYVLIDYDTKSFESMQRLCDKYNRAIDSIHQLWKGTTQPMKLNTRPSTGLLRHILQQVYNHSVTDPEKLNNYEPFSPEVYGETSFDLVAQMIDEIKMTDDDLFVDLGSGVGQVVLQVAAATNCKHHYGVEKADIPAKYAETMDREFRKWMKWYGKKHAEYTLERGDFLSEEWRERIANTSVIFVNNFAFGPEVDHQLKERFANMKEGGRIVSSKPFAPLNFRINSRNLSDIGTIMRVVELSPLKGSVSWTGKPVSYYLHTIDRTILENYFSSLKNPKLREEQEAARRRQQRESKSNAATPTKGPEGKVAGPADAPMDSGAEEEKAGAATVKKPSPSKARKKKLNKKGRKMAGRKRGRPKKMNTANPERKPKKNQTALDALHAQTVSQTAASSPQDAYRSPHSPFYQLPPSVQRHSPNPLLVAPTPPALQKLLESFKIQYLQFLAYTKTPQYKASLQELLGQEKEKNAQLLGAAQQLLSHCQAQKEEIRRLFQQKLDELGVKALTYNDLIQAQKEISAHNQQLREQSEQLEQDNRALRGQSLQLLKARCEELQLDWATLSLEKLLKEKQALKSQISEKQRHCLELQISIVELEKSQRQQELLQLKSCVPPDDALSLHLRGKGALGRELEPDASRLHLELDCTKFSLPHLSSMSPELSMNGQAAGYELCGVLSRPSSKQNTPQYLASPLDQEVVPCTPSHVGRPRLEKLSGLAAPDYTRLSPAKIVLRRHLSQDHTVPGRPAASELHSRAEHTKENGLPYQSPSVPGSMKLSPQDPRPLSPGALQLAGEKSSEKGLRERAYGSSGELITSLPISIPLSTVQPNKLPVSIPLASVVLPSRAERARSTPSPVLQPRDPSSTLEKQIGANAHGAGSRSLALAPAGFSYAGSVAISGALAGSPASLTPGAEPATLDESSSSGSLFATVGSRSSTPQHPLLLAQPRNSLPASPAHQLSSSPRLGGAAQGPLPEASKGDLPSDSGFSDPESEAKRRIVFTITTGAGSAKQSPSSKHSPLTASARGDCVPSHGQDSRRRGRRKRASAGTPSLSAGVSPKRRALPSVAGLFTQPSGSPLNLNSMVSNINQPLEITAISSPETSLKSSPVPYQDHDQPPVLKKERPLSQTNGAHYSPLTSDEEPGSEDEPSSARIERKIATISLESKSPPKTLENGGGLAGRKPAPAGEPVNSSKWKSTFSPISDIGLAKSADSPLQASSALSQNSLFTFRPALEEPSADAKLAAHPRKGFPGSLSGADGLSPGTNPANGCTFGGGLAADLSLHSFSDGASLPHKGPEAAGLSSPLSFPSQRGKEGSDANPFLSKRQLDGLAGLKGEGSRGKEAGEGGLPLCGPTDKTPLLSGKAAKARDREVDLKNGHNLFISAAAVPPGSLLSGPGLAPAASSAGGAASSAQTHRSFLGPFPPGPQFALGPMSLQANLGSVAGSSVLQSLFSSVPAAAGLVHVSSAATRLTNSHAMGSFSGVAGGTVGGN
Chain of DNMT1 (P26358 351-1600): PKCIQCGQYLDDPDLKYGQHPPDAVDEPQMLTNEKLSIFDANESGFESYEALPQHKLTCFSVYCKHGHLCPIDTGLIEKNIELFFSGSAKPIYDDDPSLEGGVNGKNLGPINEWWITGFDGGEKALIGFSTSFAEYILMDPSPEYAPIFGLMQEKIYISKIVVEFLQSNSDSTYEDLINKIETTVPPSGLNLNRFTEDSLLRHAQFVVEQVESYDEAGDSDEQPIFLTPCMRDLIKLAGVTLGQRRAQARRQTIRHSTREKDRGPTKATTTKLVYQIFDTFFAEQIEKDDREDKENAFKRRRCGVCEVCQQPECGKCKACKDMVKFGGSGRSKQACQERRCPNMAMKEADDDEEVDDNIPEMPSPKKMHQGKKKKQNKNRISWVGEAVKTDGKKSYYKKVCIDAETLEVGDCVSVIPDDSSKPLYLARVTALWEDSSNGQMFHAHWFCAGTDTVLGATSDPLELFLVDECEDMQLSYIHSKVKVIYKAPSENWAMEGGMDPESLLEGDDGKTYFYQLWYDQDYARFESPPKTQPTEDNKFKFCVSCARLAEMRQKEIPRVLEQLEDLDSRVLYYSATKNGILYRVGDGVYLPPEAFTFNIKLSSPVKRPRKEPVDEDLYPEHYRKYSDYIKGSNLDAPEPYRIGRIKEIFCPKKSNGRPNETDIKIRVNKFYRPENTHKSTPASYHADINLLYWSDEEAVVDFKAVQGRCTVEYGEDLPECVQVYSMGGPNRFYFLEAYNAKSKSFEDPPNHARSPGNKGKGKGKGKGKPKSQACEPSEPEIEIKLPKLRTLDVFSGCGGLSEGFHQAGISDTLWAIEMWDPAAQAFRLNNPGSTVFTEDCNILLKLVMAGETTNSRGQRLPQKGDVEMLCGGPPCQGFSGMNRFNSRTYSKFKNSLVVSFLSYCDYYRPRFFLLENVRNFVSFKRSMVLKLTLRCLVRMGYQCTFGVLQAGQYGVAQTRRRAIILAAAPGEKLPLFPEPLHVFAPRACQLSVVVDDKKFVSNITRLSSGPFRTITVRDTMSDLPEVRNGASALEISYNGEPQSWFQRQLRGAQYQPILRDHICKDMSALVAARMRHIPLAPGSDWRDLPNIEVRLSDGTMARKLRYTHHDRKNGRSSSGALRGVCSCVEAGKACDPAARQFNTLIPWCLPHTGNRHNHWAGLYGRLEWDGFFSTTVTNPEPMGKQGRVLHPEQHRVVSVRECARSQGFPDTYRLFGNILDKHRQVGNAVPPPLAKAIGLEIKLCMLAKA
Chain of MettL3-MettL14 (Q86U44 whole entry): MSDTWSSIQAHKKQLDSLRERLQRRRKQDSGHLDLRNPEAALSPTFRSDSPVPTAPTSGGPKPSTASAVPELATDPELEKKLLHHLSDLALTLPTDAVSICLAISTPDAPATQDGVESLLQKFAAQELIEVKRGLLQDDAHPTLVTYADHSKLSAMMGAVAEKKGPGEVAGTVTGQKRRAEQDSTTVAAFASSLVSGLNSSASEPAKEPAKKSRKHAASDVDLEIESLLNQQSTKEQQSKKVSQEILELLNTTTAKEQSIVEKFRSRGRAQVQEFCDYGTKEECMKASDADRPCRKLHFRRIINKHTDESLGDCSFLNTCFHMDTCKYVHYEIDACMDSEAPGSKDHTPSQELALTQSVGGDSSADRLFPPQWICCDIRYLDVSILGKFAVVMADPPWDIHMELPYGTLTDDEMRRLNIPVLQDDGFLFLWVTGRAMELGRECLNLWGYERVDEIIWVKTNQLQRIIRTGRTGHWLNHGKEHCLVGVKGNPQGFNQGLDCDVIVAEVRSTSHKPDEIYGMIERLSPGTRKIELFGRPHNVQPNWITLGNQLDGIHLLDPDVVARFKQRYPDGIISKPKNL
Chain of MettL3-MettL14 (Q9HCE5 whole entry partner): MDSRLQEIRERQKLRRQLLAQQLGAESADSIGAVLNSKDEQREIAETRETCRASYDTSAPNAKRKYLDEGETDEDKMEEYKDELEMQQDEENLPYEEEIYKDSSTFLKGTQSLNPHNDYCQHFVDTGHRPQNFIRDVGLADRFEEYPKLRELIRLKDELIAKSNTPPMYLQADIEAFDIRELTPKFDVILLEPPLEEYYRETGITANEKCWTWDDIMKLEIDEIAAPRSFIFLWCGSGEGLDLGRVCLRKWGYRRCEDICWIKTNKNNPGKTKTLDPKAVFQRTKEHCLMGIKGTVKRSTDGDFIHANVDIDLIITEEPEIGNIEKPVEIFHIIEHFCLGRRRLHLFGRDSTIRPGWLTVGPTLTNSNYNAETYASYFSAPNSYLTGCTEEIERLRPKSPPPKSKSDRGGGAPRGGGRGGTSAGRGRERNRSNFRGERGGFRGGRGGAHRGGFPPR

Row | Structure (SMILES) | inhibition of DOT1L [1] | inhibition of Dam [2] | inhibition of DNMT1 [3] | inhibition of MettL3-MettL14 [4] | inhibition of G9a [5] | inhibition of PRMT1 [6] | inhibition of CcrM [7]
1 | OC[C@H]1O[C@@H](n2cnc3c(NCCCc4ccc(O)cc4)ncnc32)[C@H](O)[C@@H]1O [Compound 16, (2R,3S,4R,5R)-2-(Hydroxymethyl)-5-(6-((3-(4-hydroxyphenyl)propyl)amino)-9H-purin-9-yl)tetrahydrofuran-3,4-diol] | none of them showed any significant inhibition | none of them showed any significant inhibition | none of them showed any significant inhibition | none of them showed any significant inhibition | none of them showed any significant inhibition | none of them showed any significant inhibition | none of them showed any significant inhibition
2 | CC(C)(C)OC(=O)N1CCC(CCCNc2ncnc3c2ncn3[C@@H]2O[C@H](CO)[C@@H](O)[C@H]2O)CC1 [Compound 39, tert-Butyl-4-(3-((9-((2R,3R,4S,5R)-3,4-dihydroxy-5-(hydroxymethyl)tetrahydrofuran-2-yl)-9H-purin-6-yl)amino)propyl)piperidine-1-carboxylate] | none of them showed any significant inhibition | none of them showed any significant inhibition | none of them showed any significant inhibition | none of them showed any significant inhibition | none of them showed any significant inhibition | none of them showed any significant inhibition | none of them showed any significant inhibition
